Experimental data as given in US11981686B2, “Urea compound having substituent” (DAIICHI SANKYO COMPANY, LIMITED, priority 2019, dated 2024).

These molecules were tested against SIRT6 enzyme (Homo sapiens, UniProt Q8N6T7) (assay: Measurement of deacetylation activity (SIRT6, AlphaLISA, H3K9(Ac) peptide)). Conditions: SIRT6 25 ng/mL, H3K9(Ac) biotin peptide 2 nM, NAD 10 μM, room temperature 30 minutes, duplicate.
SIRT6 enzyme, sequence (Q8N6T7 whole entry, species assumed): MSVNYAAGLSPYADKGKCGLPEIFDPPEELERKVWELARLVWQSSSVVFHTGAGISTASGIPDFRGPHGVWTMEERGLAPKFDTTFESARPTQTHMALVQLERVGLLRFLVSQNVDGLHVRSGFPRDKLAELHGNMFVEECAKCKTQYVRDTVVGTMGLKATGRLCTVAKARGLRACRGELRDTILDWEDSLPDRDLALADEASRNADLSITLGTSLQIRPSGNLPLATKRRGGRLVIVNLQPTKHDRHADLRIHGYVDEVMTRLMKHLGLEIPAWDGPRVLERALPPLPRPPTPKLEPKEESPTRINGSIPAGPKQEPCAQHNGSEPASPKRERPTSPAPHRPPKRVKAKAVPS
Format: biochemical
Method in brief: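 Activation read as EC150, the concentration giving 150% activity relative to enzyme/no-enzyme DMSO controls, via variable-slope fit. Deacetylation of 2 nM biotinylated H3K9(Ac) peptide with 10 μM NAD+ by 25 ng/mL SIRT6 ran 30 min at room temperature, pH 8.0, then AlphaLISA detection of unmodified H3K9.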
With `O=C(Nc1nc2c(s1)[C@@H]1COC[C@H](C2)N1c1cc(-c2ccc(F)cc2)on1)N[C@H]1CC[C@H](O)CC1` [Example 159, N-{(4S,8S)-10-[5-(4-fluorophenyl)-1,2-oxazol-3-yl]-4,7,8,9-tetrahydro-5H-4,8-epiminooxocino[5,4-d][1,3]thiazol-2-yl}-N′-[(1r,4r)-4-hydroxycyclohexyl]urea] the “EC150 (the concentration of the compound showing a relative enzyme activity of 150%)” value was 1.3 μm.
In the case of `CC(C)(CO)NC(=O)Nc1nc2c(s1)[C@@H]1COC[C@H](C2)N1c1cc(-c2ccc(F)cc2)on1` [Example 160, N-{(4S,8S)-10-[5-(4-fluorophenyl)-1,2-oxazol-3-yl]-4,7,8,9-tetrahydro-5H-4,8-epiminooxocino[5,4-d][1,3]thiazol-2-yl}-N′-(1-hydroxy-2-methylpropan-2-yl)urea], the “EC150 (the concentration of the compound showing a relative enzyme activity of 150%)” value was 3.2 μm.
`O=C(Nc1nc2c(s1)[C@@H]1COC[C@H](C2)N1c1cc(-c2ccc(F)cc2)on1)NC1CCOCC1` [Example 161, N-{(4S,8S)-10-[5-(4-fluorophenyl)-1,2-oxazol-3-yl]-4,7,8,9-tetrahydro-5H-4,8-epiminooxocino[5,4-d][1,3]thiazol-2-yl}-N′-oxan-4-ylurea] was tested, and the “EC150 (the concentration of the compound showing a relative enzyme activity of 150%)” value was 0.97 μm.
`COc1cccc(-c2cc(N3[C@@H]4COC[C@H]3c3sc(NC(=O)N[C@H]5CCOC5)nc3C4)no2)n1` [Example 162, N-{(4S,8S)-10-[5-(6-methoxypyridin-2-yl)-1,2-oxazol-3-yl]-4,7,8,9-tetrahydro-5H-4,8-epiminooxocino[5,4-d][1,3]thiazol-2-yl}-N′-[(3S)-oxolan-3-yl]urea] was tested, and the “EC150 (the concentration of the compound showing a relative enzyme activity of 150%)” value was 3.3 μm.
For `COc1cccc(-c2cc(N3[C@@H]4COC[C@H]3c3sc(NC(=O)N[C@@H]5CCOC5)nc3C4)no2)n1` [Example 163, N-{(4S,8S)-10-[5-(6-methoxypyridin-2-yl)-1,2-oxazol-3-yl]-4,7,8,9-tetrahydro-5H-4,8-epiminooxocino[5,4-d][1,3]thiazol-2-yl}-N′-[(3R)-oxolan-3-yl]urea], the “EC150 (the concentration of the compound showing a relative enzyme activity of 150%)” value was 1.6 μm.
For `COc1cccc(-c2cc(N3[C@@H]4COC[C@H]3c3sc(NC(=O)N[C@@H]5CCOC5)nc3C4)no2)c1` [Example 164, N-{(4S,8S)-10-[5-(3-methoxyphenyl)-1,2-oxazol-3-yl]-4,7,8,9-tetrahydro-5H-4,8-epiminooxocino[5,4-d][1,3]thiazol-2-yl}-N′-[(3R)-oxolan-3-yl]urea], the “EC150 (the concentration of the compound showing a relative enzyme activity of 150%)” value was 2.6 μm.
For `O=C(Nc1nc2c(s1)[C@@H]1COC[C@H](C2)N1c1cc(-c2ccc(F)cc2)on1)NC1CCS(=O)(=O)CC1` [Example 165, N-(1,1-dioxo-1λ^6-thian-4-yl)-N′-{(4S,8S)-10-[5-(4-fluorophenyl)-1,2-oxazol-3-yl]-4,7,8,9-tetrahydro-5H-4,8-epiminooxocino[5,4-d][1,3]thiazol-2-yl}urea], the “EC150 (the concentration of the compound showing a relative enzyme activity of 150%)” value was 0.41 μm.
`O=C(Nc1nc2c(s1)[C@@H]1COC[C@H](C2)N1c1ncc(-c2cccc(C(F)F)c2)o1)N[C@H]1C[C@H](O)C1` [Example 166, N-(10-{5-[3-(difluoromethyl)phenyl]-1,3-oxazol-2-yl}-4,7,8,9-tetrahydro-5H-4,8-epiminooxocino[5,4-d][1,3]thiazol-2-yl)-N′-[(1r,3r)-3-hydroxycyclobutyl]urea] was tested, and the “EC150 (the concentration of the compound showing a relative enzyme activity of 150%)” value was 0.21 μm.
For `O=C(Nc1nc2c(s1)[C@@H]1COC[C@H](C2)N1c1ncc(-c2cccc(OC(F)F)c2)o1)N[C@H]1C[C@H](O)C1` [Example 167, N-[(4S,8S)-10-{5-[3-(difluoromethoxy)phenyl]-1,3-oxazol-2-yl}-4,7,8,9-tetrahydro-5H-4,8-epiminooxocino[5,4-d][1,3]thiazol-2-yl]-N′-[(1r,3S)-3-hydroxycyclobutyl]urea], the “EC150 (the concentration of the compound showing a relative enzyme activity of 150%)” value was 0.43 μm.
In the case of `C[C@@H](CO)NC(=O)Nc1nc2c(s1)[C@@H]1COC[C@H](C2)N1c1ncc(-c2cccc(C(F)F)c2)o1` [Example 168, N-[(4S,8S)-10-{5-[3-(difluoromethyl)phenyl]-1,3-oxazol-2-yl}-4,7,8,9-tetrahydro-5H-4,8-epiminooxocino[5,4-d][1,3]thiazol-2-yl]-N′-[(2S)-1-hydroxypropan-2-yl]urea], the “EC150 (the concentration of the compound showing a relative enzyme activity of 150%)” value was 0.35 μm.
In the case of `C[C@@H](CO)NC(=O)Nc1nc2c(s1)[C@@H]1COC[C@H](C2)N1c1ncc(-c2cccc(OC(F)F)n2)o1` [Example 169, N-[(4S,8S)-10-{5-[6-(difluoromethoxy)pyridin-2-yl]-1,3-oxazol-2-yl}-4,7,8,9-tetrahydro-5H-4,8-epiminooxocino[5,4-d][1,3]thiazol-2-yl]-N′-[(2S)-1-hydroxypropan-2-yl]urea], the “EC150 (the concentration of the compound showing a relative enzyme activity of 150%)” value was 0.66 μm.
`CC(C)(CO)NC(=O)Nc1nc2c(s1)[C@@H]1COC[C@H](C2)N1c1ncc(-c2cccc(OC(F)F)c2)o1` [Example 170, N-[(4S,8S)-10-{5-[3-(difluoromethoxy)phenyl]-1,3-oxazol-2-yl}-4,7,8,9-tetrahydro-5H-4,8-epiminooxocino[5,4-d][1,3]thiazol-2-yl]-N′-(1-hydroxy-2-methylpropan-2-yl)urea] was tested, and the “EC150 (the concentration of the compound showing a relative enzyme activity of 150%)” value was 1.2 μm.
`C[C@@H](O)CNC(=O)Nc1nc2c(s1)[C@@H]1COC[C@H](C2)N1c1ncc(-c2cccc(OC(F)F)c2)o1` [Example 171, N-[(4S,8S)-10-{5-[3-(difluoromethoxy)phenyl]-1,3-oxazol-2-yl}-4,7,8,9-tetrahydro-5H-4,8-epiminooxocino[5,4-d][1,3]thiazol-2-yl]-N′-[(2R)-2-hydroxypropyl]urea] was tested, and the “EC150 (the concentration of the compound showing a relative enzyme activity of 150%)” value was 0.55 μm.
`CC(C)(O)CNC(=O)Nc1nc2c(s1)[C@@H]1COC[C@H](C2)N1c1ncc(-c2cccc(OC(F)F)c2)o1` [Example 172, N-[(4S,8S)-10-{5-[3-(difluoromethoxy)phenyl]-1,3-oxazol-2-yl}-4,7,8,9-tetrahydro-5H-4,8-epiminooxocino[5,4-d][1,3]thiazol-2-yl]-N′-(2-hydroxy-2-methylpropyl)urea] was tested, and the “EC150 (the concentration of the compound showing a relative enzyme activity of 150%)” value was 0.83 μm.
In the case of `C[C@@H](CO)NC(=O)Nc1nc2c(s1)[C@@H]1COC[C@H](C2)N1c1ncc(-c2cccc(OC(F)F)c2)o1` [Example 173, N-[(4S,8S)-10-{5-[3-(difluoromethoxy)phenyl]-1,3-oxazol-2-yl}-4,7,8,9-tetrahydro-5H-4,8-epiminooxocino[5,4-d][1,3]thiazol-2-yl]-N′-[(2S)-1-hydroxypropan-2-yl]urea], the “EC150 (the concentration of the compound showing a relative enzyme activity of 150%)” value was 0.62 μm.
In the case of `C[C@H](O)CNC(=O)Nc1nc2c(s1)[C@@H]1COC[C@H](C2)N1c1ncc(-c2cccc(OC(F)F)n2)o1` [Example 174, N-[(4S,8S)-10-{5-[6-(difluoromethoxy)pyridin-2-yl]-1,3-oxazol-2-yl}-4,7,8,9-tetrahydro-5H-4,8-epiminooxocino[5,4-d][1,3]thiazol-2-yl]-N′-[(2S)-2-hydroxypropyl]urea], the “EC150 (the concentration of the compound showing a relative enzyme activity of 150%)” value was 0.74 μm.
`O=C(Nc1nc2c(s1)[C@@H]1COC[C@H](C2)N1c1ncc(-c2cccc(OC(F)F)n2)o1)N[C@@H]1COC[C@H]1O` [Example 175, N-[(4S,8S)-10-{5-[6-(difluoromethoxy)pyridin-2-yl]-1,3-oxazol-2-yl}-4,7,8,9-tetrahydro-5H-4,8-epiminooxocino[5,4-d][1,3]thiazol-2-yl]-N′-[(3R,4S)-4-hydroxyoxolan-3-yl]urea] was tested, and the “EC150 (the concentration of the compound showing a relative enzyme activity of 150%)” value was 0.27 μm.
With `O=C(Nc1nc2c(s1)[C@@H]1COC[C@H](C2)N1c1ncc(-c2cccc(OC(F)F)n2)o1)N[C@H]1CC[C@H](O)CC1` [Example 176, N-[(4S,8S)-10-{5-[6-(difluoromethoxy)pyridin-2-yl]-1,3-oxazol-2-yl}-4,7,8,9-tetrahydro-5H-4,8-epiminooxocino[5,4-d][1,3]thiazol-2-yl]-N′-[(1r,4r)-4-hydroxycyclohexyl]urea] the “EC150 (the concentration of the compound showing a relative enzyme activity of 150%)” value was 0.33 μm.
`O=C(NCc1ccnc(O)c1)Nc1nc2c(s1)[C@@H]1COC[C@H](C2)N1c1ncc(-c2cccc(OC(F)F)n2)o1` [Example 177, N-[(4S,8S)-10-{5-[6-(difluoromethoxy)pyridin-2-yl]-1,3-oxazol-2-yl}-4,7,8,9-tetrahydro-5H-4,8-epiminooxocino[5,4-d][1,3]thiazol-2-yl]-N′-[(2-hydroxypyridin-4-yl)methyl]urea] was tested, and the “EC150 (the concentration of the compound showing a relative enzyme activity of 150%)” value was 0.28 μm.
`Cn1ccc(CNC(=O)Nc2nc3c(s2)[C@@H]2COC[C@H](C3)N2c2ncc(-c3cccc(OC(F)F)n3)o2)cc1=O` [Example 178, N-[(4S,8S)-10-{5-[6-(difluoromethoxy)pyridin-2-yl]-1,3-oxazol-2-yl}-4,7,8,9-tetrahydro-5H-4,8-epiminooxocino[5,4-d][1,3]thiazol-2-yl]-N′-[(1-methyl-2-oxo-1,2-dihydropyridin-4-yl)methyl]urea] was tested, and the “EC150 (the concentration of the compound showing a relative enzyme activity of 150%)” value was 0.1 μm.
`O=C(NCC1(O)CC1)Nc1nc2c(s1)[C@@H]1COC[C@H](C2)N1c1ncc(-c2cccc(OC(F)F)n2)o1` [Example 179, N-[(4S,8S)-10-{5-[6-(difluoromethoxy)pyridin-2-yl]-1,3-oxazol-2-yl}-4,7,8,9-tetrahydro-5H-4,8-epiminooxocino[5,4-d][1,3]thiazol-2-yl]-N′-[(1-hydroxycyclopropyl)methyl]urea] was tested, and the “EC150 (the concentration of the compound showing a relative enzyme activity of 150%)” value was 0.72 μm.
For `O=C(Nc1nc2c(s1)[C@@H]1COC[C@H](C2)N1c1ncc(-c2cccc(OC(F)F)n2)o1)NC1CCS(=O)(=O)CC1` [Example 180, N-[(4S,8S)-10-{5-[6-(difluoromethoxy)pyridin-2-yl]-1,3-oxazol-2-yl}-4,7,8,9-tetrahydro-5H-4,8-epiminooxocino[5,4-d][1,3]thiazol-2-yl]-N′-(1,1-dioxo-1λ^6 thian-4-yl)urea], the “EC150 (the concentration of the compound showing a relative enzyme activity of 150%)” value was 0.14 μm.
